Measured values: US20240116910A1, “Heterocycles as WIP1 Inhibitors” (PMV Pharmaceuticals, Inc., priority 2022, published 2024)

biological target: recombinant His-tag Wip1(2-420) protein (amino acids #2-420) (Homo sapiens (Human), UniProt O15297); test: Wip1(2-420) phosphatase enzyme FDP assay; assay type: biochemical; settings: fluorescein diphosphate (FDP) substrate, RT 2 hours, fluorescence Ex485/Em535; read-out: WIP1 (Truncated 2-420) FDP Assay: IC50
Experimental: The Human Wip1 (2-420, aa 2-420) or Wip1 full length (aa 1-605) DNA sequence was codon optimized and synthesized by Genscript for insect cell expression. The open reading frame of Wip1(2-420) with a N-terminal-His6 affinity tag followed by a TEV cleavage site was subcloned sites into the pFastBac1 expression vector. The recombinant bacmid DNA was transfected in Sf9 insect cells for baculovirus production. After 72 hours infection, the Sf9 cells were harvested by centrifugation and resuspended in lysis buffer containing 50 mM Tris/HCl, pH 8.0, 500 mM NaCl, 20% glycerol, Benzonase 0.5% CHAPS and Roche cOmplete™ EDTA free protease inhibitors. Cells were disrupted with microfluidizer and the debris was removed by centrifugation at 185,000 g for 1 hour. The supernatant was subjected to HisTrap FF for affinity purification. Proteins were eluted with a linear gradient of 0-500 mM imidazole in HisTrap buffer containing 50 mM Tris/HCl, pH 8.0, 500 mM NaCl and 20% glycerol, 0.05% CHAPS. The eluted protein was dialyzed against dialysis buffer (20 mM MES, 100 mM NaCl, 20% glycerol, 0.5 mM TCEP, 0.05% CHAPS) followed purification via HiTrap SP HP column. The protein was eluted with a gradient of 100 mM-2 M NaCl in dialysis buffer. His6-[…] was finally concentrated and loaded onto a size-exclusion column (NiLoad 16/600 Superdex 200 pg, GE Healthcare) pre-equilibrated with 50 mM MOPS (pH 7.5), 200 mM NaCl, 20% glycerol, 1 mM TCEP, 0.05% CHAPS and 0.1 mM EGTA. The peak fractions containing purified Nis6-Wip1(2-420) were pooled and concentrated to 1.0 mg/mL and flash frozen at −80° C.
Wip1 Length and Wip1(2-420) Phosphatase Enzyme FDP Assays.
Test compounds (252 mM stock in DMSO) were diluted 3 folds in series in DMSO and 1.2 μl per well were added into 384-well polypropylene black plates (Nunc). Twelve μl per well of Assay Buffer (100 mM NaCl, 50 mM MOPS, pH 7.5, 0.8 mM CHAPS, 0.1 mM EGTA, 30 mM MgCl2, 0.3 mM TCEP, 0.2 mg/mL BSA) was added followed by […] per well of 50.4 nM recombinant His-tag Wip1 full length protein (amino acids #1-605) or recombinant His-tag Wip1(2-420) protein (amino acids #2-420) in Assay Buffer and the plate was incubated at RT (22° C.) for 5 min. Ten mM of fluorescein diphosphate (FDP) in DMSO was diluted to […] in Assay Buffer and […] per well was added to the plate and incubated at RT (22° C.) for 2 hours. […] per well of 64.1 mM EDTA in water were added to stop the enzyme reaction. The plate was centrifuged at 1,200 rpm (Eppendorf 5810R Plate centrifuge) for 1 minute and fluorescence intensity (Ex485/Em535) was measured on Perkin Elmer Victor Reader. EC50 values were calculated using either Prism (GraphPad) or ActivityBase software (IDBS), The IC50 results are provided in Table M.

Chain of recombinant His-tag Wip1(2-420) protein (amino acids #2-420) (O15297 2-420): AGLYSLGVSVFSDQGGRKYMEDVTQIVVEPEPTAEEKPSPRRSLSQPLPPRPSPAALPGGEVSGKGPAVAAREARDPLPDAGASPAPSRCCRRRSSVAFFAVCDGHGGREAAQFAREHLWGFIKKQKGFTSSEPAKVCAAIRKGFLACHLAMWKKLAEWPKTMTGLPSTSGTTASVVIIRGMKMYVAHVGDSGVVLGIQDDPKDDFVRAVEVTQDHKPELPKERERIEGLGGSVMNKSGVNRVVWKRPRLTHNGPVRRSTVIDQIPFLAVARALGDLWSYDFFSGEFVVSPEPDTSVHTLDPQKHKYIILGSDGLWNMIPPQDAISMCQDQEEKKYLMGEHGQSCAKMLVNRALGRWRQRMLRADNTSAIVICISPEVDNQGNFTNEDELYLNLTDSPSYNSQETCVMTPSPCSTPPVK

Row | SMILES | IC50 [nM]
1 | Cc1ncc(Cl)cc1N[C@@H](C)c1ccc(C(=O)N[C@H](CC2CCCC2)C(=O)Nc2ccnc(O)c2)s1 [Compound 140, (2R)-2-({5-[(1S)-1-[(5-chloro-2-methylpyridin-3-yl)amino]ethyl]thiophen-2-yl}formamido)-3-cyclopentyl-N-(2-hydroxypyridin-4-yl)propanamide] | 402
2 | Cc1ncc(Cl)cc1N[C@H](C)c1ccc(C(=O)N[C@@H](CC2CCCC2)C(=O)NC2CC2)s1 [Compound 9, 5-[(1R)-1-[(5-chloro-2-methyl-3-pyridyl)amino]ethyl]-N-[(1S)-1-(cyclopentylmethyl)-2-(cyclopropylamino)-2-oxo-ethyl]thiophene-2-carboxamide] | 411
3 | Cc1cc(NC(=O)[C@H](CC2CCCC2)NC(=O)c2cnc([C@H](C)Nc3cccc(Cl)c3)s2)cc(C)n1 [Compound 128, (2S)-2-({2-[(1S)-1-[(3-chlorophenyl)amino]ethyl]-1,3-thiazol-5-yl}formamido)-3-cyclopentyl-N-(2,6-dimethylpyridin-4-yl)propanamide] | 3910
4 | CC(Nc1cc(Cl)ccc1C(C)(C)O)c1ccc(C(=O)N[C@@H](CC2CCCC2)C(=O)NC2CC2)s1 (stereo partly drawn) [Compound 229, (2S)-2-{[5-(1-{[5-chloro-2-(2-hydroxypropan-2-yl)phenyl]amino}ethyl)thiophen-2-yl]formamido}-3-cyclopentyl-N-cyclopropylpropanamide] | 20
5 | Cc1ncc(Cl)cc1N[C@H](C)c1ncc(C(=O)N[C@@H](CC2CCCC2)C(=O)NC23CC(C2)C3)s1 [Compound 126, (2S)-N-{bicyclo[1.1.1]pentan-1-yl}-2-({2-[(1R)-1-[(5-chloro-2-methylpyridin-3-yl)amino]ethyl]-1,3-thiazol-5-yl}formamido)-3-cyclopentylpropanamide] | 1020
6 | Cc1ncc(Cl)cc1N[C@H](Cc1ccccc1)c1ccc(C(=O)N[C@@H](CC2CCCC2)C(=O)NC23CC(C#N)(C2)C3)s1 [Compound 213, (2S)-2-({5-[(1R)-1-[(5-chloro-2-methylpyridin-3-yl)amino]-2-phenylethyl]thiophen-2-yl}formamido)-N-{3-cyanobicyclo[1.1.1]pentan-1-yl}-3-cyclopentylpropanamide] | 166
7 | Cc1ncc(Cl)cc1N[C@H](Cc1ccccc1)c1ccc(C(=O)N[C@@H](CC2CCCC2)C(=O)NC2CC2)s1 [Compound 261, (2S)-2-({5-[(1R)-1-[(5-chloro-2-methylpyridin-3-yl)amino]-2-phenylethyl]thiophen-2-yl}formamido)-3-cyclopentyl-N-cyclopropylpropanamide] | 40
8 | Cc1ncc(Cl)cc1N[C@@H](C)c1ccc(C(=O)N[C@@H](CCC(C)C)C(=O)NC2CC2)s1 [Compound 217, (2S)-2-({5-[(1S)-1-[(5-chloro-2-methylpyridin-3-yl)amino]ethyl]thiophen-2-yl}formamido)-N-cyclopropyl-5-methylhexanamide] | 27
9 | COC[C@H](Nc1cc(Cl)cnc1C)c1ccc(C(=O)N[C@@H](CC2CCCC2)C(=O)NC2CC2)s1 [Compound 159, (2S)-2-({5-[(1S)-1-[(5-chloro-2-methylpyridin-3-yl)amino]-2-methoxyethyl]thiophen-2-yl}formamido)-3-cyclopentyl-N-cyclopropylpropanamide] | 13
10 | CC[C@@H](Nc1cc(Cl)cnc1C)c1ccc(C(=O)N[C@@H](CC2CCCC2)C(=O)NC23CC(C2)C3)s1 [Compound 67, (2S)-N-{bicyclo[1.1.1]pentan-1-yl}-2-({5-[(1R)-1-[(5-chloro-2-methylpyridin-3-yl)amino]propyl]thiophen-2-yl}formamido)-3-cyclopentylpropanamide] | 270

Molecules with a lower IC50, results first:

Row | IC50 [nM] | SMILES
11 | 5 | Cc1ncc(Cl)cc1N[C@@H](C)c1ccc(C(=O)N[C@@H](CC2CCCCC2)C(=O)N[C@H]2C[C@H](F)C2)s1 [Compound 108, (2S)-2-({5-[(1S)-1-[(5-chloro-2-methylpyridin-3-yl)amino]ethyl]thiophen-2-yl}formamido)-3-cyclohexyl-N-[(1r,3r)-3-fluorocyclobutyl]propanamide]
12 | 11 | C[C@H](c1ccc(C(=O)N[C@@H](CC2CCCC2)C(=O)NC23CC(C2)C3)s1)N(C)c1cncc(Cl)c1 [Compound 97, (2S)-N-{bicyclo[1.1.1]pentan-1-yl}-2-({5-[(1R)-1-[(5-chloropyridin-3-yl)(methyl)amino]ethyl]thiophen-2-yl}formamido)-3-cyclopentylpropanamide]
13 | 8 | Cc1cccc(NC(=O)[C@H](CC2CCCC2)NC(=O)c2ccc([C@H](C)Nc3cc(Cl)cnc3C)s2)n1 [Compound 86]
14 | 8 | Cc1ncc(Cl)cc1N[C@@H](C)c1ccc(C(=O)N[C@@H](CC2CCCC2)C(=O)Nc2cn[nH]c2)s1 [Compound 227, (2S)-2-({5-[(1S)-1-[(5-chloro-2-methylpyridin-3-yl)amino]ethyl]thiophen-2-yl}formamido)-3-cyclopentyl-N-(1H-pyrazol-4-yl)propanamide]
15 | 5 | C[C@H](Nc1cc(Cl)cnc1C(N)=O)c1ccc(C(=O)N[C@@H](CC2CCCC2)C(=O)Nc2cnn(C)c2)s1 [Compound 136, 5-chloro-3-{[(1S)-1-(5-{[(1S)-2-cyclopentyl-1-[(1-methyl-1H-pyrazol-4-yl)carbamoyl]ethyl]carbamoyl}thiophen-2-yl)ethyl]amino}pyridine-2-carboxamide]
16 | 3 | Cc1ncc(Cl)cc1N[C@@H](C)c1ccc(C(=O)N[C@@H](CC2CCCC2)C(=O)Nc2ccc3cnccc3c2)s1 [Compound 195, (2S)-2-({5-[(1S)-1-[(5-chloro-2-methylpyridin-3-yl)amino]ethyl]thiophen-2-yl}formamido)-3-cyclopentyl-N-(isoquinolin-6-yl)propanamide]
17 | 7 | Cc1ncc(Cl)cc1N[C@@H](C)c1ccc(C(=O)N[C@@H](CC2CCC3CC32)C(=O)NC2CC2)s1 (stereo in doubt) [Compound 273, (2S)-3-[(2S)-bicyclo[3.1.0]hexan-2-yl]-2-({5-[(1S)-1-[(5-chloro-2-methylpyridin-3-yl)amino]ethyl]thiophen-2-yl}formamido)-N-cyclopropylpropanamide]
18 | 11 | Cc1ncc(Cl)cc1N[C@@H](C)c1ccc(C(=O)N[C@@H](CCC(C)(C)C)C(=O)NC2CC2)s1 [Compound 161, (2S)-2-({5-[(1S)-1-[(5-chloro-2-methylpyridin-3-yl)amino]ethyl]thiophen-2-yl}formamido)-N-cyclopropyl-5,5-dimethylhexanamide]
19 | 6 | CNC(=O)c1ncc(Cl)cc1N[C@@H](C)c1ccc(C(=O)N[C@@H](CC2CCCC2)C(=O)NC2CC2)s1 [Compound 196, 5-chloro-3-{[(1S)-1-(5-{[(1S)-2-cyclopentyl-1-(cyclopropylcarbamoyl)ethyl]carbamoyl}thiophen-2-yl)ethyl]amino}-N-methylpyridine-2-carboxamide]
20 | 6 | Cc1ncc(Cl)cc1N[C@@H](Cc1ccccc1)c1ccc(C(=O)N[C@@H](CC2CCCC2)C(=O)NC2CC2)s1 [Compound 262, (2S)-2-({5-[(1S)-1-[(5-chloro-2-methylpyridin-3-yl)amino]-2-phenylethyl]thiophen-2-yl}formamido)-3-cyclopentyl-N-cyclopropylpropanamide]
21 | 8 | Cc1ncc(Cl)cc1N[C@@H](C)c1ccc(C(=O)N[C@@H](CC2CCCC2)C(=O)NC23CCC(CC2)CC3)s1 [Compound 257, (2S)-N-{bicyclo[2.2.2]octan-1-yl}-2-({5-[(1S)-1-[(5-chloro-2-methylpyridin-3-yl)amino]ethyl]thiophen-2-yl}formamido)-3-cyclopentylpropanamide]
22 | 8 | Cc1ncc(Cl)cc1N[C@@H](C)c1ccc(C(=O)N[C@@H](CC2CCCC2)C(=O)Nc2cc(N)ccn2)s1 [Compound 150, (2S)-N-(4-aminopyridin-2-yl)-2-({5-[(1S)-1-[(5-chloro-2-methylpyridin-3-yl)amino]ethyl]thiophen-2-yl}formamido)-3-cyclopentylpropanamide]
